Measured values taken from article PMC3477139 (PLoS ONE, 2012).

Columns and labels:
human GLP-1R [1] = molecular target: T1, human GLP-1R (Homo sapiens, UniProt P43220); test: cAMP generation in intact HEK-GLP-1R cells; assay type: cell-based; settings: IBMX; for EC50: pEC50 of the GLP-1 9–36 amide response (cAMP), 15 min, mean±s.e.m., n = 4
T1 construct: expressed in transfected cells; vector pcDNA5/FRT
Description: (§1) HEK-Flp-In cells with stable recombinant expression of the human GLP-1R (HEK-GLP-1R) were cultured in DMEM with high glucose supplemented with 10% FBS, 100 µg/ml streptomycin and 100 units/ml penicillin sulphate. These cells were originally generated by transfection of HEK-Flp-In cells (Invitrogen: Paisley, U.K.) with pcDNA5/FRT containing the human GLP-1R. […] INS-1E cells were kindly provided by Prof. C.B. Wollheim of the University of Geneva, Switzerland [19]. These cells were used between passages 65–90 and cultured in RPMI media containing 11.1 mM glucose, 5% heat-inactivated FBS, 100 µg/ml streptomycin, 100 units/ml penicillin sulphate, 100 units/ml neomycin, 50 µM β-mercaptoethanol, 10 mM HEPES and 1 mM sodium pyruvate. All cells were cultured at 37°C in a 5% CO2 humidified atmosphere and passaged at confluence.
(§2) Confluent monolayers of HEK-GLP-1R cells cultured in 24-well plates pre-coated with poly-D-lysine (0.1% w/v) where washed twice with 0.5 ml Krebs-HEPES buffer (KHB, composition: 10 mM HEPES; 4.2 mM NaHCO3; 11.7 mM D-glucose; 1.18 mM MgSO4·7H2O; 1.18 mM KH2PO4; 4.69 mM KCl; 118 mM NaCl; 1.3 mM CaCl2·2H2O; pH 7.4) containing 0.1% (w/v) BSA (KHB-BSA) before incubation (10 min, 37°C) in 360 µl KHB-BSA containing 500 µM isobutylmethylxanthine (IBMX). Ligands or vehicle control (40 µl) were added and reactions terminated after the appropriate times by replacement of the aqueous phase with ice-cold 0.5 M trichloroacetic acid. INS-1E cells grown to confluence in 24-well plates were treated similarly with the exception that after washing in KHB, cells were incubated in 200 µl KHB-BSA containing 1.4 mM glucose without IBMX for 2 h followed by challenge with ligands (or vehicle) for 15 min at 37°C in 400 µl KHB-BSA, in the presence of 10 mM glucose and 500 µM IBMX. Reactions were terminated as above.
(§3) The cAMP was extracted from either intact cell or membrane preparations using a method identical to that for extraction of Ins(1,4,5)P3 [22]. Levels of cAMP were then determined by a competitive radioreceptor assay using binding protein purified from bovine adrenal glands and related to cellular protein assessed by Bradford assay.
(§4) Concentration-response curves were fitted using GraphPad Prism (GraphPad Software Inc., CA) using a standard four parameter logistic equation. All data are representative of n≥3 or are presented as mean+/±s.e.m., where n = 3 unless otherwise stated. Statistical analysis was by oneway ANOVA and where P<0.05, followed by Bonferroni's or Dunnett's multiple range test as indicated. Alternatively analysis was performed by Student's t-test. Where potency estimates are given these are pEC50 values (−log10 of the molar concentration giving 50% of the maximal response).

human GLP-1R [2] = molecular target: T1, human GLP-1R; test: cAMP generation by membranes from HEK-GLP-1R cells; assay type: biochemical; settings: read-out: Emax as % of the GLP-1 7–36 amide response, cAMP (membranes); 5 min, 30°C, IBMX
Description: as §3, §4

[3] = molecular target: T2, GLP-1R (native, rat insulinoma cell line INS-1E) (Rattus norvegicus, UniProt P32301); test: cAMP generation in INS-1E cells; assay type: cell-based; settings: INS-1E, read-out: Emax as % of that evoked by GLP-1 7–36 amide, cAMP (INS-1E), in the presence of compound 2
T2 construct: the rat insulinoma cell line, INS-1E, with native expression of the GLP-1R; endogenous in cells; host or cells: INS-1E rat insulinoma cells (gift of Prof. C.B. Wollheim)
T2 sequence (P32301 22-463): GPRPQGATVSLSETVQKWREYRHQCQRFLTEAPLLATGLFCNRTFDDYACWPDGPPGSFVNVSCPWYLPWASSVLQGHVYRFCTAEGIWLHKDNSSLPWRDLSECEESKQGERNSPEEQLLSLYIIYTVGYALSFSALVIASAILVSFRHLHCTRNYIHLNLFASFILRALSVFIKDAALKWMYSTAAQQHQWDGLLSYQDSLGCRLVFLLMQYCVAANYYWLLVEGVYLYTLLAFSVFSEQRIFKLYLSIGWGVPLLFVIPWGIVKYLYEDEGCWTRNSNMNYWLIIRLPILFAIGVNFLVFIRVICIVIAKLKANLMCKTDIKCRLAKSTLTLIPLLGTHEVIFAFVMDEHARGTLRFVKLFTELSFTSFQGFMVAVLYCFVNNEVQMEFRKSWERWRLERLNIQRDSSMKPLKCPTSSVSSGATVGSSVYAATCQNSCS
Description: as §1, §2, §3, §4

human GLP-1R [4] = molecular target: T1, human GLP-1R; test: ERK activation (phospho-ERK Western blot) in HEK-GLP-1R cells; assay type: cell-based; settings: GLP-1 9–36 amide (1 µM) + compound 2 (0.1 µM to 1 µM), 5 min; n = 3
Description: as §4

[5] = in vivo, cited from earlier work
Excerpt: (§5) Such proteolysis is thought to remove biological activity.

adenylyl cyclase = test: cAMP generation by direct activation of adenylyl cyclase with forskolin; assay type: biochemical; settings: membranes from HEK-GLP-1R cells, 5 min, 30°C, IBMX
Description: Generation of cAMP by cell membranes was determined based on previously published methods, [21]. Membranes were prepared from confluent cell monolayers grown in 80 cm^2 flasks. Cells were washed with 5 ml HBS (154 mM NaCl, 10 mM HEPES, pH 7.4, 37°C), detached using harvesting buffer (154 mM NaCl, 10 mM HEPES, 5.4 mM EDTA, pH 7.4, 37°C) and collected by centrifugation (200 g, 2 min, 4°C). The cell pellet was resuspended in 1 ml of homogenization buffer (10 mM HEPES, 10 mM EDTA, pH 7.4) and sonicated (Sonifier Ultrasonic Cell Disruptor; Branson, CT) at 30% of the maximal amplitude for 3×5 s at ∼30 s intervals before centrifugation (30,000 g, 4°C, 10 min). After removal of the supernatant, pellets were collected in resuspension buffer (10 mM HEPES, 0.1 mM EDTA, pH 7.4), protein concentration adjusted to 1 mg/ml and stored in aliquots at −80°C until assay. Generation of cAMP was determined in 100 µl containing: 10 mM HEPES, 12 mM MgCl2, 60 mM NaCl, 1.2 mM EDTA, 1.2% w/v BSA, 5% DMSO, 480 µM ATP, 2 mM IBMX, 10 µM GTP, 20 µg membrane and ligands as indicated. […]
as §3

β2-adrenoceptors = test: cAMP accumulation via β2-adrenoceptors in HEK-GLP-1R cells; assay type: cell-based; settings: isoproterenol 100 µM, IBMX, 5% DMSO
Description: Ligands or vehicle control (40 µl) were added and reactions terminated after the appropriate times by replacement of the aqueous phase with ice-cold 0.5 M trichloroacetic acid. […] Reactions were terminated as above.
as §3
All data are mean±/+s.e.m., n = 3–4, *** P<0.001 and ** P<0.01 by Bonferroni's multiple range test. For clarity only differences between ‘numerical’ and ‘co-addition’ conditions are shown.

GLP-1R [6] = settings: ref [9]; cited from earlier work
Excerpt: as §5

[7] = molecular target: GLP-1 7-36 amide 7-36 (Homo sapiens) (UniProt P01275); settings: cited from earlier work
Chain of GLP-1 7-36 amide 7-36 (Homo sapiens) (P01275 7-36): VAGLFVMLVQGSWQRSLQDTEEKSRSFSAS

GLP-1R [8] = settings: intact GLP-1; ref [16], [18], [30], [40]; cited from earlier work
type 2 diabetes = settings: exogenous GLP-1; ref [11]; cited from earlier work
Excerpt: GLP-1 is generated within intestinal L-cells by the a ...

T1 sequence (P43220 24-463): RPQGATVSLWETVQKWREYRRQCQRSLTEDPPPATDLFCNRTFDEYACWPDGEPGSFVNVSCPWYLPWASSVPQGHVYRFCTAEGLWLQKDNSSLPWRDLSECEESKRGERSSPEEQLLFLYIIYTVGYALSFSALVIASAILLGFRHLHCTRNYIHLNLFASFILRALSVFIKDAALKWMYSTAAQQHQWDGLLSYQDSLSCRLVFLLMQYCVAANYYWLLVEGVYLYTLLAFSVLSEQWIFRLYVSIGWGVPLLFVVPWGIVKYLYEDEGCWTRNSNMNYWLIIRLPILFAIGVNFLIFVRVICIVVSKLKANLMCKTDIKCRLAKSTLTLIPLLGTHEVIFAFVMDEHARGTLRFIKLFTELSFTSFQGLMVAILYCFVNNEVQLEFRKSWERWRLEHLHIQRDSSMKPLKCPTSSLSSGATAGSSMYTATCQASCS
Chain of GLP-1R (P43220 24-463): as above

CC[C@H](C)[C@H](NC(=O)[C@H](Cc1ccccc1)NC(=O)[C@H](CCC(=O)O)NC(=O)[C@H](CCCCN)NC(=O)[C@H](C)NC(=O)[C@H](C)NC(=O)[C@H](CCC(N)=O)NC(=O)CNC(=O)[C@H](CCC(=O)O)NC(=O)[C@H](CC(C)C)NC(=O)[C@H](Cc1ccc(O)cc1)NC(=O)[C@H](CO)NC(=O)[C@H](CO)NC(=O)[C@@H](NC(=O)[C@H](CC(=O)O)NC(=O)[C@H](CO)NC(=O)[C@@H](NC(=O)[C@H](Cc1ccccc1)NC(=O)[C@@H](NC(=O)CNC(=O)[C@@H](N)CCC(=O)O)[C@@H](C)O)[C@@H](C)O)C(C)C)C(=O)N[C@@H](C)C(=O)N[C@@H](Cc1c[nH]c2ccccc12)C(=O)N[C@@H](CC(C)C)C(=O)N[C@H](C(=O)N[C@@H](CCCCN)C(=O)NCC(=O)N[C@@H](CCCNC(=N)N)C(N)=O)C(C)C [GLP-1 9–36 amide, Glucagon-like peptide-1 9–36 amide]
EC50 (human GLP-1R [1]; compound 2: 0 µM): 309 nM | EC50 (human GLP-1R [1]; compound 2: 0.03 µM): 85.1 nM | EC50 (human GLP-1R [1]; compound 2: 0.1 µM, ** P<0.01 versus 0 µM compound 2): 32.4 nM | EC50 (human GLP-1R [1]; compound 2: 0.3 µM, *** P<0.001 versus 0 µM compound 2): 8.91 nM | EC50 (human GLP-1R [1]; compound 2: 1.0 µM, *** P<0.001 versus 0 µM compound 2): 5.25 nM | EC50 (human GLP-1R [1]; compound 2: 3.0 µM, *** P<0.001 versus 0 µM compound 2): 3.89 nM | Emax (human GLP-1R [1]; read-out: Emax as % of the GLP-1 7–36 amide response, cAMP, no pretreatment, 15 min challenge): 18% | Emax (human GLP-1R [2]): 23% | Emax [3]: ~50% | ERK activation in excess of the sum of the responses to the ligands alone (human GLP-1R [4]): 45–69% | peak plasma level, oral glucose tolerance test ([5]; po): ~60 pM

C=C[C@@]1(C)CC(=O)[C@]2(O)[C@@]3(C)[C@@H](O)CCC(C)(C)[C@@H]3[C@H](O)[C@H](OC(C)=O)[C@@]2(C)O1 [forskolin]
cAMP generation by forskolin (in words) (adenylyl cyclase): robustly increased cAMP generation

CC(C)NCC(O)c1ccc(O)c(O)c1 (stereo not shown) [isoproterenol]
cAMP accumulation (in words) (β2-adrenoceptors): stimulation of cAMP accumulation

GLP-1 7–37: generated from proglucagon by prohormone convertase 1/3
fasting plasma concentration [5]: < 10 pM | plasma concentration following a meal [5]: ~10 pM | relative potency at the GLP-1R (GLP-1R [6]): essentially equipotent

GLP-1R (from UniProt P43220)
Kd [7]: 1 nM

Glucagon-like peptide-1 [GLP-1]
affinity at the GLP-1R (GLP-1R [8]): nanomolar to sub-nanomolar affinity | effect on insulin secretion and hyperglycaemia in type 2 diabetes (type 2 diabetes): potentiates glucose-dependent insulin secretion and can normalize hyperglycaemia in type 2 diabetes
